Test results as given in paper PMC6072100, “Exploring the links between peptoid antibacterial activity and toxicity” (MedChemComm, 2017).
Where two headings read alike, the source gives them in different places. Square brackets hold non-standard residues; d marks the D form. Peptide text beside a SMILES is read from it. Gly(N-(CH2)6NH2) = NCCCCCCNCC(=O)O; Gly(N-2-aminoethyl) = NCCNCC(=O)O; Nspe = C[C@H](NCC(=O)O)c1ccccc1; Nphe = O=C(O)CNCc1ccccc1; Nlys = NCCCCNCC(=O)O

Test: Cytotoxicity assay with HepG2 (alamarBlue)
Type: cell-based, human
Conditions: human, HepG2 cells
Method: The activity of our peptoid library was assessed against both bacterial and mammalian cells to gain a broader understanding of the factors that lead to effective and selective antimicrobial peptoids. We screened for broad-spectrum antibacterial activity against Gram-negative (Escherichia coli and Pseudomonas aeruginosa) and Gram-positive (Staphylococcus aureus and S. epidermidis) bacteria. The toxicity of the library was also assessed against two mammalian cell lines; HaCaT spontaneously transformed aneuploid keratinocytes were employed to model toxicity against human skin cells and HepG2, a cell line derived from a human liver carcinoma, were used as a study on polarised human hepatocytes. Detailed methods for these assays can be found in the ESI. ^‡ […]
Please note – ED50, the median effective dose, was defined as the dose that kills 50% of cells.
Cytotoxicity analyses were performed in 96-well plates (Costar, Fisher Scientific) using alamarBlue® (Invitrogen) for cell viability detection using a modified protocol as described previously. HepG2 or HaCaT cells were subcultured at 37 °C, 5% CO2 in DMEM high glucose supplemented with heat-inactivated foetal bovine sera (FBS, 10%; Biosera Ltd) and penicillin/streptomycin (P/S, 1%). Cells were counted using a Neubauer Improved Haemocytometer. HepG2 cells were seeded 1 day prior to treatment in 96 well plates at a concentration of 2 × 10^5 cells per mL in 100 μL of medium (2 × 10^4 cells per well). Then cells were pre-incubated with the compounds in triplicate in a dilution series in triplicate from 2–100 μM (5 mM stock solutions in DMSO diluted from 100 μM to 3 μM; untreated cells with DMSO as a negative control) in 50 μl of the media for 1 hour. Afterwards, 40 μL were removed from each well before the addition of 90 μL of the media, followed by incubation for 24 hours at 37 °C, 5% CO2. Then, 10 μL of alamarBlue® (Invitrogen) was added to each well before a 2 hour incubation prior to assessing cell viability using a fluorescent plate reader (Biotek; Ex 560 nm/Em 600 nm). All data were measured in triplicate on a minimum of two occasions to ensure a robust data set was collected. The ED50 values were calculated from the dose response results achieved from the serial dilutions.
Cytotoxicity assay with HepG2
Cytotoxicity analyses were performed in 96-well plates (Costar, Fisher Scientific) using alamarBlue® (Invitrogen) for cell viability detection using a modified protocol as previously described. The HepG2 cells were grown at 37 °C, 5% CO2 in DMEM high glucose supplemented with heat-inactivated foetal bovine sera (FBS, 10%; Biosera Ltd) and penicillin/streptomycin (P/S, 1%). Cells were counted using a Neubauer Improved Haemocytometer. HepG2 cells were seeded 1 day prior to treatment in 96 well plates at a concentration of 2x10^5 cells/mL in 100 µL of medium (2x10^4 cells/well). Then cells were pre-incubated with the compounds in triplicate (5 mM stock solutions in DMSO diluted from 100 µM to 3 µM; untreated cells with DMSO as a negative control) in 50 µl of the media for 1 hour.
Afterwards, 40 µL were removed from each well before the addition of 90 µL of the media, followed by incubation for 24 hours at 37 °C, 5% CO2. Then, 10 µL of alamarBlue® (Invitrogen) was added to each well before a 2 hour incubation prior to assessing cell viability using a fluorescent plate reader (Biotek; Ex 560 nm / Em 600 nm). All data was measured in triplicate on a minimum of two occasions to ensure a robust data set was collected. The ED50 values were calculated from the dose response results achieved from the serial dilutions. […]
5% CO2 in DMEM high glucose supplemented with heat-inactivated foetal bovine sera (FBS, 10%; Biosera Ltd) and penicillin/streptomycin (P/S, 1%). Cells were counted using a Neubauer […]
Empty wells were filled with 100 µL PBS. After 24 hours, cells were incubated with the compounds in a dilution series in triplicate from 2 – 100 µM (5 mM stock solutions in DMSO […]

[1] = dose that kills 50% of cells, 2–100 μM, 1 h with compound then 24 h, alamarBlue, read-out: ED50 HepG2

SMILES | CC50 at 24 h (ED50 HepG2) [µM] | CC50 at 24 h [1] [µM]
NCCCCCCNCC(=O)N(CC(=O)N(CC(=O)N(CCCCCCN)CC(=O)N(CC(=O)N(CC(=O)N(CCCCCCN)CC(=O)N(CC(=O)N(CC(=O)N(CCCCCCN)CC(=O)N(CC(=O)N(CC(N)=O)Cc1ccccc1)Cc1ccccc1)Cc1ccccc1)Cc1ccccc1)Cc1ccccc1)Cc1ccccc1)Cc1ccccc1)Cc1ccccc1 [Peptoid 1, (NahNpheNphe)4] (H-[Gly(N-(CH2)6NH2)][Nphe][Nphe][Gly(N-(CH2)6NH2)][Nphe][Nphe][Gly(N-(CH2)6NH2)][Nphe][Nphe][Gly(N-(CH2)6NH2)][Nphe][Nphe]-NH2) | 100 | –
NCCCCCCNCC(=O)N(CC(=O)N(CC(=O)N(CCCCCCN)CC(=O)N(CC(=O)N(CC(=O)N(CCCCCCN)CC(=O)N(CC(=O)N(CC(N)=O)Cc1ccccc1)Cc1ccccc1)Cc1ccccc1)Cc1ccccc1)Cc1ccccc1)Cc1ccccc1 [Peptoid 2, (NahNpheNphe)3] (H-[Gly(N-(CH2)6NH2)][Nphe][Nphe][Gly(N-(CH2)6NH2)][Nphe][Nphe][Gly(N-(CH2)6NH2)][Nphe][Nphe]-NH2) | 100 | –
NCCCCCCNCC(=O)N(CC(=O)N(CC(=O)N(CCCCCCN)CC(=O)N(CC(=O)N(CC(N)=O)Cc1ccccc1)Cc1ccccc1)Cc1ccccc1)Cc1ccccc1 [Peptoid 3, (NahNpheNphe)2] (H-[Gly(N-(CH2)6NH2)][Nphe][Nphe][Gly(N-(CH2)6NH2)][Nphe][Nphe]-NH2) | 100 | –
NCCCCNCC(=O)N(CC(=O)N(CC(=O)N(CCCCN)CC(=O)N(CC(=O)N(CC(=O)N(CCCCN)CC(=O)N(CC(=O)N(CC(=O)N(CCCCN)CC(=O)N(CC(=O)N(CC(N)=O)Cc1ccccc1)Cc1ccccc1)Cc1ccccc1)Cc1ccccc1)Cc1ccccc1)Cc1ccccc1)Cc1ccccc1)Cc1ccccc1 [Peptoid 4, (NLysNpheNphe)4] (H-[Nlys][Nphe][Nphe][Nlys][Nphe][Nphe][Nlys][Nphe][Nphe][Nlys][Nphe][Nphe]-NH2) | 100 | –
NCCCCNCC(=O)N(CC(=O)N(CC(=O)N(CCCCN)CC(=O)N(CC(=O)N(CC(=O)N(CCCCN)CC(=O)N(CC(=O)N(CC(N)=O)Cc1ccccc1)Cc1ccccc1)Cc1ccccc1)Cc1ccccc1)Cc1ccccc1)Cc1ccccc1 [Peptoid 5, (NLysNpheNphe)3] | 100 | –
NCCCCNCC(=O)N(CC(=O)N(CC(=O)N(CCCCN)CC(=O)N(CC(=O)N(CC(N)=O)Cc1ccccc1)Cc1ccccc1)Cc1ccccc1)Cc1ccccc1 [Peptoid 6, (NLysNpheNphe)2] (H-[Nlys][Nphe][Nphe][Nlys][Nphe][Nphe]-NH2) | 100 | –
NCCNCC(=O)N(CC(=O)N(CC(=O)N(CCN)CC(=O)N(CC(=O)N(CC(=O)N(CCN)CC(=O)N(CC(=O)N(CC(=O)N(CCN)CC(=O)N(CC(=O)N(CC(N)=O)Cc1ccccc1)Cc1ccccc1)Cc1ccccc1)Cc1ccccc1)Cc1ccccc1)Cc1ccccc1)Cc1ccccc1)Cc1ccccc1 [Peptoid 7, (NaeNpheNphe)4] (H-[Gly(N-2-aminoethyl)][Nphe][Nphe][Gly(N-2-aminoethyl)][Nphe][Nphe][Gly(N-2-aminoethyl)][Nphe][Nphe][Gly(N-2-aminoethyl)][Nphe][Nphe]-NH2) | 100 | –
NCCNCC(=O)N(CC(=O)N(CC(=O)N(CCN)CC(=O)N(CC(=O)N(CC(=O)N(CCN)CC(=O)N(CC(=O)N(CC(N)=O)Cc1ccccc1)Cc1ccccc1)Cc1ccccc1)Cc1ccccc1)Cc1ccccc1)Cc1ccccc1 [Peptoid 8, (NaeNpheNphe)3] (H-[Gly(N-2-aminoethyl)][Nphe][Nphe][Gly(N-2-aminoethyl)][Nphe][Nphe][Gly(N-2-aminoethyl)][Nphe][Nphe]-NH2) | 100 | –
NCCNCC(=O)N(CC(=O)N(CC(=O)N(CCN)CC(=O)N(CC(=O)N(CC(N)=O)Cc1ccccc1)Cc1ccccc1)Cc1ccccc1)Cc1ccccc1 [Peptoid 9, (NaeNpheNphe)2] (H-[Gly(N-2-aminoethyl)][Nphe][Nphe][Gly(N-2-aminoethyl)][Nphe][Nphe]-NH2) | 100 | –
C[C@@H](c1ccccc1)N(CC(N)=O)C(=O)CN(C(=O)CN(CCCCCCN)C(=O)CN(C(=O)CN(C(=O)CN(CCCCCCN)C(=O)CN(C(=O)CN(C(=O)CN(CCCCCCN)C(=O)CN(C(=O)CN(C(=O)CNCCCCCCN)[C@@H](C)c1ccccc1)[C@@H](C)c1ccccc1)[C@@H](C)c1ccccc1)[C@@H](C)c1ccccc1)[C@@H](C)c1ccccc1)[C@@H](C)c1ccccc1)[C@@H](C)c1ccccc1 [Peptoid 10, (NahNspeNspe)4] (H-[Gly(N-(CH2)6NH2)][Nspe][Nspe][Gly(N-(CH2)6NH2)][Nspe][Nspe][Gly(N-(CH2)6NH2)][Nspe][Nspe][Gly(N-(CH2)6NH2)][Nspe][Nspe]-NH2; N-terminus assumed) | 41 | –
C[C@@H](c1ccccc1)N(CC(N)=O)C(=O)CN(C(=O)CN(CCCCCCN)C(=O)CN(C(=O)CN(C(=O)CN(CCCCCCN)C(=O)CN(C(=O)CN(C(=O)CNCCCCCCN)[C@@H](C)c1ccccc1)[C@@H](C)c1ccccc1)[C@@H](C)c1ccccc1)[C@@H](C)c1ccccc1)[C@@H](C)c1ccccc1 [Peptoid 11, (NahNspeNspe)3] (H-[Gly(N-(CH2)6NH2)][Nspe][Nspe][Gly(N-(CH2)6NH2)][Nspe][Nspe][Gly(N-(CH2)6NH2)][Nspe][Nspe]-NH2) | 100 | –
C[C@@H](c1ccccc1)N(CC(N)=O)C(=O)CN(C(=O)CN(CCCCCCN)C(=O)CN(C(=O)CN(C(=O)CNCCCCCCN)[C@@H](C)c1ccccc1)[C@@H](C)c1ccccc1)[C@@H](C)c1ccccc1 [Peptoid 12, (NahNspeNspe)2] | 100 | –
C[C@@H](c1ccccc1)N(CC(N)=O)C(=O)CN(C(=O)CN(CCCCN)C(=O)CN(C(=O)CN(C(=O)CN(CCCCN)C(=O)CN(C(=O)CN(C(=O)CN(CCCCN)C(=O)CN(C(=O)CN(C(=O)CNCCCCN)[C@@H](C)c1ccccc1)[C@@H](C)c1ccccc1)[C@@H](C)c1ccccc1)[C@@H](C)c1ccccc1)[C@@H](C)c1ccccc1)[C@@H](C)c1ccccc1)[C@@H](C)c1ccccc1 [Peptoid 13, (NLysNspeNspe)4] (H-[Nlys][Nspe][Nspe][Nlys][Nspe][Nspe][Nlys][Nspe][Nspe][Nlys][Nspe][Nspe]-NH2) | – | 29
C[C@@H](c1ccccc1)N(CC(N)=O)C(=O)CN(C(=O)CN(CCCCN)C(=O)CN(C(=O)CN(C(=O)CN(CCCCN)C(=O)CN(C(=O)CN(C(=O)CNCCCCN)[C@@H](C)c1ccccc1)[C@@H](C)c1ccccc1)[C@@H](C)c1ccccc1)[C@@H](C)c1ccccc1)[C@@H](C)c1ccccc1 [Peptoid 14, (NLysNspeNspe)3] (H-[Nlys][Nspe][Nspe][Nlys][Nspe][Nspe][Nlys][Nspe][Nspe]-NH2) | – | 100
C[C@@H](c1ccccc1)N(CC(N)=O)C(=O)CN(C(=O)CN(CCCCN)C(=O)CN(C(=O)CN(C(=O)CNCCCCN)[C@@H](C)c1ccccc1)[C@@H](C)c1ccccc1)[C@@H](C)c1ccccc1 [Peptoid 15, (NLysNspeNspe)2] (H-[Nlys][Nspe][Nspe][Nlys][Nspe][Nspe]-NH2) | 100 | –
C[C@@H](c1ccccc1)N(CC(N)=O)C(=O)CN(C(=O)CN(CCN)C(=O)CN(C(=O)CN(C(=O)CN(CCN)C(=O)CN(C(=O)CN(C(=O)CN(CCN)C(=O)CN(C(=O)CN(C(=O)CNCCN)[C@@H](C)c1ccccc1)[C@@H](C)c1ccccc1)[C@@H](C)c1ccccc1)[C@@H](C)c1ccccc1)[C@@H](C)c1ccccc1)[C@@H](C)c1ccccc1)[C@@H](C)c1ccccc1 [Peptoid 16, (NaeNspeNspe)4] (H-[Gly(N-2-aminoethyl)][Nspe][Nspe][Gly(N-2-aminoethyl)][Nspe][Nspe][Gly(N-2-aminoethyl)][Nspe][Nspe][Gly(N-2-aminoethyl)][Nspe][Nspe]-NH2) | 41 | –
